# Test system: subjects with moderate-to-severe plaque psoriasis
# Test: Safety, adverse events, Example 2 through Week 56
# Assay type: in vivo, human
# Excerpt: The LTE safety analysis was based on randomized participants in Example who entered the present long-term extension study and received at least one dose of study intervention (including a partial dose) during the study period.
# [1] = Combined, Week 16 through Week 56
smiles,measurement,setting,value
"CC(=O)NCCCC[C@@H]1NC(=O)[C@H](Cc2c[nH]c3c(C)cccc23)NC(=O)[C@H]([C@@H](C)O)NC(=O)[C@H](CC(N)=O)NC(=O)[C@@H](NC(C)=O)C(C)(C)SSC(C)(C)[C@@H](C(=O)N[C@@H](Cc2ccc(OCCN)cc2)C(=O)N[C@@H](Cc2ccc3ccccc3c2)C(=O)NC2(C(=O)N[C@@H](CCC(=O)O)C(=O)N[C@@H](CC(N)=O)C(=O)N[C@@H](Cc3cccnc3)C(=O)N(C)CC(N)=O)CCOCC2)NC1=O [IL-23 receptor antagonist peptide, Ac-[Pen]*-N-T-[W(7-Me)]-[Lys(Ac)]-[Pen]*-Phe[4-(2-aminoethoxy)]-[2-Nal]-[THP]-E-N-[3-Pal]-Sarc-NH2 (*[Pen]-[Pen]* formdisulfidebond)]","Respiratory, thoracic and mediastinal disorders: number of subjects","100 mg QD, through Week 56",4
same,Retinal vein occlusion: number of subjects,"100 mg QD, through Week 56",0
same,Rhinorrhoea: number of subjects,"100 mg QD, through Week 56",0
same,Seasonal allergy: number of subjects,"100 mg QD, through Week 56",0
same,Skin and subcutaneous tissue disorders: % of subjects,"100 mg QD, through Week 56",(4.7%)
same,Skin and subcutaneous tissue disorders: number of subjects,"100 mg QD, through Week 56",2
same,Skin laceration: % of subjects,"100 mg QD, through Week 56",(2.3%)
same,Skin laceration: number of subjects,"100 mg QD, through Week 56",1
same,Skin papilloma: number of subjects,"100 mg QD, through Week 56",0
same,Social circumstances: number of subjects,"100 mg QD, through Week 56",0
same,Steatohepatitis: number of subjects,"100 mg QD, through Week 56",0
same,Subjects with AE leading to discontinuation: Abdominal discomfort,"100 mg QD, through Week 56",0
same,Subjects with AE leading to discontinuation: Abdominal pain,"100 mg QD, through Week 56",0
same,Subjects with AE leading to discontinuation: Alanine aminotransferase increased,"100 mg QD, through Week 56",0
same,Subjects with AE leading to discontinuation: Aspartate aminotransferase increased,"100 mg QD, through Week 56",0
same,Subjects with AE leading to discontinuation: Asthenia,"100 mg QD, through Week 56",0
same,Subjects with AE leading to discontinuation: Gamma-glutamyltransferase increased,"100 mg QD, through Week 56",0
same,Subjects with AE leading to discontinuation: Insomnia,"100 mg QD, through Week 56",0
same,Subjects with AE leading to discontinuation: Investigations,"100 mg QD, through Week 56",0
same,Subjects with AE leading to discontinuation: Nausea,"100 mg QD, through Week 56",0
same,Subjects with AE leading to discontinuation: Proctalgia,"100 mg QD, through Week 56",0
same,Subjects with AE leading to discontinuation: Psoriasis,"100 mg QD, through Week 56",0
same,Subjects with AE leading to discontinuation: Skin and subcutaneous tissue disorders,"100 mg QD, through Week 56",0
same,Subjects with AE leading to discontinuation: Transaminases increased,"100 mg QD, through Week 56",0
same,Subjects with AE leading to discontinuation: Weight increased,"100 mg QD, through Week 56",0
same,Subjects with COVID-19 associated AE: SARS-CoV-2 test positive,"100 mg QD, through Week 56",0
same,Subjects with treatment-emergent AE: Alanine aminotransferase increased,"100 mg QD, through Week 56",0
same,Subjects with treatment-emergent AE: Aspartate aminotransferase increased,"100 mg QD, through Week 56",0
same,Subjects with treatment-emergent AE: Bronchitis,"100 mg QD, through Week 56",0
same,Subjects with treatment-emergent AE: Headache,"100 mg QD, through Week 56",5
same,Subjects with treatment-emergent AE: Urinary tract infection,"100 mg QD, through Week 56",0
same,Subjects with treatment-emergent serious AE: Cardiac disorders,"100 mg QD, through Week 56",0
same,Subjects with treatment-emergent serious AE: Cerebrovascular accident,"100 mg QD, through Week 56",0
same,Subjects with treatment-emergent serious AE: Coronary artery disease,"100 mg QD, through Week 56",0
same,Subjects with treatment-emergent serious AE: Foot deformity,"100 mg QD, through Week 56",0
same,Subjects with treatment-emergent serious AE: General disorders and administration site conditions,"100 mg QD, through Week 56",0
same,Subjects with treatment-emergent serious AE: Infected cyst,"100 mg QD, through Week 56",0
same,"Subjects with treatment-emergent serious AE: Injury, poisoning and procedural complications","100 mg QD, through Week 56",0
same,Subjects with treatment-emergent serious AE: Ligament injury,"100 mg QD, through Week 56",0
same,"Subjects with treatment-emergent serious AE: Neoplasms benign, malignant and unspecified (incl cysts and polyps)","100 mg QD, through Week 56",0
same,Subjects with treatment-emergent serious AE: Nervous system disorders,"100 mg QD, through Week 56",0
same,Subjects with treatment-emergent serious AE: Non-cardiac chest pain,"100 mg QD, through Week 56",0
same,"Subjects with treatment-emergent serious AE: Respiratory, thoracic and mediastinal disorders","100 mg QD, through Week 56",0
same,Subjects with treatment-emergent serious AE: Tonsillar hypertrophy,"100 mg QD, through Week 56",0
same,Subjects with treatment-emergent serious AE: Uterine leiomyoma,"100 mg QD, through Week 56",0
same,Subjects with treatment-emergent serious AE: Ventricular dysfunction,"100 mg QD, through Week 56",0
same,Suicide attempt: % of subjects,"100 mg QD, through Week 56",(2.3%)
same,Suicide attempt: number of subjects,"100 mg QD, through Week 56",1
same,Sunburn: number of subjects,"100 mg QD, through Week 56",0
same,Thrombocytopenia: number of subjects,"100 mg QD, through Week 56",0
same,Thrombocytosis: number of subjects,"100 mg QD, through Week 56",0
same,Tonsillar hypertrophy: number of subjects,"100 mg QD, through Week 56",0
same,Tooth fracture: number of subjects,"100 mg QD, through Week 56",0
same,Type 2 diabetes mellitus: number of subjects,"100 mg QD, through Week 56",0
same,Urinary tract disorder: number of subjects,"100 mg QD, through Week 56",0
same,Uterine leiomyoma: number of subjects,"100 mg QD, through Week 56",0
same,Vascular disorders: % of subjects,"100 mg QD, through Week 56",(2.3%)
same,Vascular disorders: number of subjects,"100 mg QD, through Week 56",1
same,Ventricular dysfunction: number of subjects,"100 mg QD, through Week 56",0
same,Vertigo: % of subjects,"100 mg QD, through Week 56",(2.3%)
same,Vertigo: number of subjects,"100 mg QD, through Week 56",1
same,Vitamin D deficiency: number of subjects,"100 mg QD, through Week 56",0
same,Number of subjects with treatment-emergent AE: Cholelithiasis,[1],1
same,Number of subjects with treatment-emergent AE: Ear and labyrinth disorders,[1],2
same,Number of subjects with treatment-emergent AE: Endocrine disorders,[1],1
same,Number of subjects with treatment-emergent AE: Eye disorders,[1],3
same,Number of subjects with treatment-emergent AE: Eyelid skin dryness,[1],1
same,Number of subjects with treatment-emergent AE: Goiter,[1],1
same,Number of subjects with treatment-emergent AE: Hepatobiliary disorders,[1],2
same,Number of subjects with treatment-emergent AE: Hypertransaminasemia,[1],1
same,Number of subjects with treatment-emergent AE: Immune system disorders,[1],2
same,Number of subjects with treatment-emergent AE: Insomnia,[1],1
same,Number of subjects with treatment-emergent AE: Ocular cyst,[1],1
same,Number of subjects with treatment-emergent AE: Psychiatric disorders,[1],1
same,Number of subjects with treatment-emergent AE: Retinal vein occlusion,[1],1
same,Number of subjects with treatment-emergent AE: Seasonal allergy,[1],2
same,Number of subjects with treatment-emergent AE: Vertigo,[1],2
same,Subjects with treatment-emergent AE: Cholelithiasis (%),[1],(0.4%)
same,Subjects with treatment-emergent AE: Ear and labyrinth disorders (%),[1],(0.9%)
same,Subjects with treatment-emergent AE: Endocrine disorders (%),[1],(0.4%)
same,Subjects with treatment-emergent AE: Eye disorders (%),[1],(1.3%)
same,Subjects with treatment-emergent AE: Eyelid skin dryness (%),[1],(0.4%)
same,Subjects with treatment-emergent AE: Goiter (%),[1],(0.4%)
same,Subjects with treatment-emergent AE: Hepatobiliary disorders (%),[1],(0.9%)
same,Subjects with treatment-emergent AE: Hypertransaminasemia (%),[1],(0.4%)
same,Subjects with treatment-emergent AE: Immune system disorders (%),[1],(0.9%)
same,Subjects with treatment-emergent AE: Insomnia (%),[1],(0.4%)
same,Subjects with treatment-emergent AE: Ocular cyst (%),[1],(0.4%)
same,Subjects with treatment-emergent AE: Psychiatric disorders (%),[1],(0.4%)
same,Subjects with treatment-emergent AE: Retinal vein occlusion (%),[1],(0.4%)
same,Subjects with treatment-emergent AE: Seasonal allergy (%),[1],(0.9%)
same,Subjects with treatment-emergent AE: Ventricular dysfunction (%),[1],(0.4%)
same,Subjects with treatment-emergent AE: Vertigo (%),[1],(0.9%)
same,Acrochordon: % of subjects,"Combined, through Week 56",(0.8%)
same,Acrochordon: number of subjects,"Combined, through Week 56",2
same,Actinic keratosis: % of subjects,"Combined, through Week 56",(0.4%)
same,Actinic keratosis: number of subjects,"Combined, through Week 56",1
same,Alopecia: % of subjects,"Combined, through Week 56",(0.4%)
same,Alopecia: number of subjects,"Combined, through Week 56",1
same,Asthenia: % of subjects,"Combined, through Week 56",(0.4%)
same,Asthenia: number of subjects,"Combined, through Week 56",1
same,Asthma: % of subjects,"Combined, through Week 56",(0.4%)
same,Asthma: number of subjects,"Combined, through Week 56",1
same,Atrioventricular block first degree: % of subjects,"Combined, through Week 56",(0.4%)
same,Atrioventricular block first degree: number of subjects,"Combined, through Week 56",1
same,Basal cell carcinoma: % of subjects,"Combined, through Week 56",(0.4%)
same,Basal cell carcinoma: number of subjects,"Combined, through Week 56",1
same,Blood and lymphatic system disorders: % of subjects,"Combined, through Week 56",(2.0%)
same,Blood and lymphatic system disorders: number of subjects,"Combined, through Week 56",5
same,Bronchitis chronic: % of subjects,"Combined, through Week 56",(0.4%)
same,Bronchitis chronic: number of subjects,"Combined, through Week 56",1
same,Bundle branch block right: % of subjects,"Combined, through Week 56",(0.4%)
same,Bundle branch block right: number of subjects,"Combined, through Week 56",1
same,Cardiac disorders: % of subjects,"Combined, through Week 56",(1.6%)
same,Cardiac disorders: number of subjects,"Combined, through Week 56",4
same,Chills: % of subjects,"Combined, through Week 56",(0.8%)
same,Chills: number of subjects,"Combined, through Week 56",2
same,Cholelithiasis: % of subjects,"Combined, through Week 56",(0.4%)
same,Cholelithiasis: number of subjects,"Combined, through Week 56",1
same,Chronic obstructive pulmonary disease: % of subjects,"Combined, through Week 56",(0.4%)
same,Chronic obstructive pulmonary disease: number of subjects,"Combined, through Week 56",1
